Experiments:
[1] = tested on: mixed MCF10A^MUC1,±HER2 cells; assay: Mixed cell suspension survival assay under anchorage-free conditions; assay type: cell-based; settings: 1 nM, 72 h
Experimental: For mixed cell assays, MUC1ΔCT was induced with 200 ng/ml doxycycline for 24 h. A 1:1 mixture of 2.5×10^5 MCF10A^MUC1 and MCF10AMUC1, HER2 cells were seeded per well in a 24-well ultra-low attachment plate in 0.80 mL of complete media. 200 ng/ml doxycycline, 1 nM StcE, and 1 nM αHER2-eStcE were added as appropriate. The plate was incubated at 37° C., 5% CO2, 125 rpm. At t=0, 24, 48, and 72 h, cells were spun down at 350× g for 5 min, resuspended in 100 μL of PBS with 0.1% benzonase, and incubated at room temperature for 15 min. Cells were then resuspended in 200 μL of enzyme-free cell dissociation buffer and stained with Alexa Fluor 647 anti-human CD340 (erbB2/HER-2) antibody (24D2 clone) (BioLegend) and 500 nM Sytox Green Nucleic Acid Stain (Thermo Fisher Scientific) for 20 min at 4° C., according to manufacturer recommendations, prior to analysis using a BD Accuri C6 plus. All flow cytometry data were analyzed using FlowJo v. 10.0 (TreeStar).

[2] = tested on: leukemia cell lines (K562, CCRF-CEM, CCRF-HSB-2); assay: NK cell killing assay with mucinase-treated leukemia cell lines; assay type: cell-based, human
Experimental: NK cell isolation. PBMC aliquots were quickly thawed and diluted in 10 mL of RPMI containing DNAase to break up cell aggregates. Cells were incubated at 5% CO2, 37° C. for 30 min and subsequently counted in duplicate. Cells were then spun down at 600× g and resuspended in RPMI to a final cell concentration of 50×10^6 cells/mL. Isolation of NK cells was performed according to manufacturer's instructions using an NK cell magnetic isolation kit (Stem Cell Technologies). NK cells were cultured for at least 24 h before conducting experiments. For killing experiments, NK cells were cultured for 24 h in complete media containing 0.2-0.5 μg/mL IL-2 (BioLegend).
NK cell killing assays. Target cells were harvested by centrifugation and resuspended in serum-free RPMI containing 5 μM Cell Tracker Far Red (Thermo Fisher Scientific) at 5×10^5 cells/mL. Cells were then incubated for 30 min at 37° C.; where indicated, cells were treated with […] StcE. Following staining and StcE treatment, cells were spun down, washed twice with PBS containing 1 mM EDTA, and resuspended in complete media. Cells were diluted to 1×10^5 cells/mL in complete media containing 100 nM Sytox Green, and 100 μL of cell suspension was aliquoted into a flat bottom 96-well plate. Separately, NK cells were diluted to various cell concentrations to generate the indicated effector: target ratios in complete media containing 100 nM Sytox Green. Where indicated, these cell suspensions were treated with 20 nM StcE for 30 min, washed twice with PBS containing 1 mM ETDA, and resuspended in complete media containing 100 nM Sytox Green. 100 μL of these cell suspensions was then mixed with the target cell suspensions to generate a total volume of 200 μL. Cells were incubated at 37° C. for 4 h and analyzed by flow cytometry.

[3] = tested on: mucins in plasma and tissues; assay: In vivo mucin degradation Western blot after StcE; parameters: species or system mouse; settings: 0.25 mg/kg
[4] = target: T1, cell surface CD43 (K562, CCRF-CEM, CCRF-HSB-2 cells) (Homo sapiens, UniProt P16150); assay: CD43 flow cytometry of leukemia cell lines; assay type: cell-based; settings: 50 nM StcE, 1 h
T1 construct: endogenous in cells; host or cells: K562, CCRF-CEM, CCRF-HSB-2
T1 sequence (P16150 20-400): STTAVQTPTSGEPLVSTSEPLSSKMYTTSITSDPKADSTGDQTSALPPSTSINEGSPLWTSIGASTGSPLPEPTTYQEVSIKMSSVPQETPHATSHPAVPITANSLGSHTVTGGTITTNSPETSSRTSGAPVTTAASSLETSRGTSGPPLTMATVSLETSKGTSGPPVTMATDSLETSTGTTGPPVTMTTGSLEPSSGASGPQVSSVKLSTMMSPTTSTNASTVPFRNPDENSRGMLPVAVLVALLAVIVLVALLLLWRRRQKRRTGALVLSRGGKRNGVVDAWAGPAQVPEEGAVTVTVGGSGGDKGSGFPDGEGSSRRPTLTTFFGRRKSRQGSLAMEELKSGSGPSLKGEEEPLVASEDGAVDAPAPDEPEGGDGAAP
Experimental: CD43 and Siglec-7-Fc flow cytometry. 1×10^6 K562, CCRF-CEM, or CCRF-HSB-2 cells growing in log phase were harvested, resuspended in 1 mL of serum-free RPMI, and treated with either vehicle or 50 nM StcE for 1 h. Cells were subsequently spun down at 600× g and washed twice in PBS. Cells were then resuspended in FACS buffer (0.5% BSA in PBS) at 1×10^6 cells/mL and aliquoted into a V-bottom 96-well plate (Corning) at 1×10^5 cells/well. For staining, a precomplex solution of 1 μg/mL Siglec-7-Fc (R&D Systems) and 1 μg/mL Alexa Fluor 488-antihFc was made up in FACS buffer and incubated on ice for 1 h. Alexa Fluor 647 CD43/sialophorin antibody (MEM-59 clone) (Novus Biologicals) was subsequently added to the precomplex solution prior to staining. Cells were stained in 100 μL of staining solution for 30 min, washed twice with FACS buffer, and analyzed by flow cytometry using a BD Accuri C6 plus.

Substance: StcE: secreted protease of C1 esterase inhibitor, zinc metalloprotease pan mucinase from E. coli O157:H7; SEQ ID NO:1
- Suspension survival in mixed HER2^+ and HER2- populations [1]: cell death in both populations
- NK cell killing after StcE treatment of the NK cells ([2]; NK cells treated with StcE): no effect relative to untreated control
- NK cell killing of StcE-treated leukemia cells ([2]; target cells treated with StcE, 4 h with NK cells): increased NK cell surveillance
- Cytotoxicity of StcE treatment of leukemia cell lines ([2]; without NK cells, n=3): statistically significant baseline toxicity increase
- Digestion of mucins in plasma and tissues [3]: digested mucins throughout the body
- Cell surface CD43 level [4]: loss of cell surface CD43
